These results are taken from patent publication US20110178104A1, “Anti-Heparin Compounds” (POLYMEDIX INC., priority 2010, published 2011).

Each structure is given as a SMILES string.

A word on the EC50: it is the midpoint of the concentration-response curve.

The test system of one assay is enoxaparin. The assay is described as follows: FXa amidolytic assay (Example 10), enoxaparin. The note with it: read-out: Enox FXa EC50; enoxaparin 0.1 ug/ml; human antithrombin, bovine Factor Xa.
For the next assay, the system named is tinzaparin. The assay is described as follows: FXa amidolytic assay (Example 10), tinzaparin. To be noted: read-out: Tinzap FXa EC50; tinzaparin 0.1 ug/ml; human antithrombin, bovine Factor Xa.
In another assay the test system is fondaparinux. The assay is described as follows: FXa amidolytic assay (Example 10), fondaparinux. The note with it: read-out: Fondap FXa EC50; fondaparinux 0.02 μg/mL; human antithrombin, bovine Factor Xa.
The test system of the next assay is Unfractionated heparin. The assay is described as follows: aPTT clotting assay, UFH 0.4 U/mL in plasma (Example 10). The class given is biochemical. To be noted: unfractionated heparin 0.4 U/mL in plasma; aPTT clotting. Here is the method: aPTT clotting Assay: Unfractionated heparin was mixed with plasma at a final concentration of 0.4 U/mL (or concentration which increases aPTT time to between 120 and 300 seconds). […] The ACL Elite Hemostasis analyzer (Beckman Coulter™) was used to add aPTT reagent (HemosIL SynthASil) to supplemented plasma. Clotting was initiated by addition of CaCl2 and time to clot was recorded.

Description for enoxaparin: (§1) Two μl of test agent are added (range between 0.01 and 23 ug/ml) and incubated for 5 minutes at 23° C. Bovine Factor Xa was added to a final concentration of 0.636 nkat/mL and incubated for a further 10 minutes at 23° C.
Description for fondaparinux: as §1
Description for tinzaparin: as §1

Take `COc1cc(OC)c(C(=O)NCCCNC(=O)c2cc(C(=O)NCCCNC(=O)c3cc(C(=O)NCCN)c(OC)cc3OC)c(OC)cc2OC)cc1C(=O)NCCN` [Compound 391]: the 50% effective concentration (EC50) with enoxaparin was greater than 5000 nM; in the assay with tinzaparin it was greater than 5000 nM; in the assay with fondaparinux, greater than 10000 nM; in the assay with Unfractionated heparin, greater than 10000 nM.
Regarding `COc1ccc(NC(=O)[C@H](CCCCN)NC(=O)c2cc(NC(=O)[C@H](CCCCN)NC(=O)c3cc(NC(=O)[C@H](CCCCN)NC(=O)c4cc(NC(=O)[C@H](CCCCN)NC(=O)COCC(=O)O)ccc4OC)ccc3OC)ccc2OC)cc1C(N)=O` [Compound 345], the concentration giving a half-maximal response (EC50) with enoxaparin worked out at 233 nM; with tinzaparin, 205 nM; in the assay with fondaparinux it was 911 nM; in the assay with Unfractionated heparin it was 2990 nM.
Take `COc1ccc(NC(C)=O)cc1C(=O)N[C@@H](CCCNC(=N)N)C(=O)Nc1ccc(OC)c(C(=O)N[C@@H](CCCNC(=N)N)C(=O)Nc2ccc(OC)c(C(=O)N[C@@H](CCCNC(=N)N)C(=O)Nc3ccc(OC)c(C(=O)N[C@H](Cc4ccc(O)cc4)C(=O)O)c3)c2)c1` [Compound 302]: the half-maximal effective concentration (EC50) in the assay on enoxaparin came to 298 nM; in the assay on tinzaparin it was 278 nM; with fondaparinux, 491 nM; in the assay on Unfractionated heparin, 10600 nM.
With `COc1ccc(NC(=O)[C@H](CCCCN)NC(=O)c2cc(NC(=O)[C@H](CCCCN)NC(=O)c3cc(NC(=O)[C@H](CCCCN)NC(=O)c4cc(NC(=O)[C@@H](N)CCCCN)ccc4OC)ccc3OC)ccc2OCC(=O)O)cc1C(N)=O` [Compound 270], the EC50 came out at 533 nM in the assay with enoxaparin, 349 nM in the assay with tinzaparin, 4050 nM in the assay on fondaparinux and 1250 nM in the assay on Unfractionated heparin.
With `COc1cc(OC)c(C(=O)NCCCNC(=O)c2cc(C(=O)NCCCN)c(OC)cc2OC)cc1C(=O)O` [Compound 409], the EC50 in the assay on enoxaparin was greater than 5000 nM; in the assay with tinzaparin, greater than 5000 nM; with fondaparinux, greater than 10000 nM; with Unfractionated heparin, greater than 10000 nM.
Take `COc1cc(OC)c(C(=O)N[C@H]2CC[C@@H](NC(=O)c3cc(C(=O)N4CCC(CN)CC4)c(OC)cc3OC)CC2)cc1C(=O)N[C@H]1CC[C@@H](NC(=O)c2cc(C(=O)N3CCC(CN)CC3)c(OC)cc2OC)CC1` [Compound 415]: the EC50 was greater than 5000 nM with enoxaparin, greater than 5000 nM in the assay with tinzaparin, greater than 10000 nM in the assay on fondaparinux and greater than 10000 nM in the assay with Unfractionated heparin.
Turning to `COc1ccc(NC(=O)[C@H](CCCCN)NC(=O)c2cc(NC(=O)[C@H](CCCCN)NC(=O)c3cc(NC(=O)[C@H](CCCCN)NC(=O)c4cc(NC(=O)[C@@H](N)CCCCN)cc(C(F)(F)F)c4)ccc3OC)ccc2OC)cc1C(N)=O` [Compound 239], the EC50 amounted to 241 nM in the assay with enoxaparin, 124 nM with tinzaparin, 4000 nM with fondaparinux and 4260 nM in the assay on Unfractionated heparin.
For `COc1ccc(NC(=O)[C@H](N)CCCNC(=N)N)cc1C(=O)N[C@H](CCCNC(=N)N)C(=O)Nc1ccc(OC)c(C(=O)N[C@H](CCCNC(=N)N)C(=O)Nc2ccc(OC)c(C(=O)N[C@H](CCCNC(=N)N)C(=O)Nc3ccc(OCC(=O)O)c(C(N)=O)c3)c2)c1` [Compound 280], the concentration giving a half-maximal response (EC50) worked out at 133 nM in the assay with enoxaparin, 120 nM with tinzaparin, 581 nM in the assay on fondaparinux and 1630 nM in the assay on Unfractionated heparin.
In the same order, the values of `COc1ccc(NC(=O)[C@H](CCCCN)NC(=O)c2cc(NC(=O)[C@@H](N)CCCCN)ccc2OC)cc1C(=O)N[C@@H](CCCCN)C(=O)Nc1ccc(SC)c(C(=O)N[C@@H](CCCCN)C(=O)Nc2ccc(SC)c(C(N)=O)c2)c1` [Compound 268] are greater than 5000 nM, greater than 5000 nM, greater than 10000 nM and greater than 10000 nM.
The like results for `COc1cc(OC)c(C(=O)N[C@H]2CC[C@H](NC(=O)c3cc(C(=O)NCCN(C)C)c(OCCCCCNC(=N)N)cc3OCCCCCNC(=N)N)CC2)cc1C(=O)N[C@H]1CC[C@@H](NC(=O)c2cc(C(=O)NCCN(C)C)c(OCCCCCNC(=N)N)cc2OCCCCCNC(=N)N)CC1` [Compound 222] were, in that order, 173 nM, 115 nM, 955 nM and 2590 nM.
For `COc1ccc(NC(=O)[C@H](CCCCN)NC(=O)c2cc(NC(=O)[C@H](CCCCN)NC(=O)c3cc(NC(=O)[C@H](CCCCN)NC(=O)c4cc(NC(=O)[C@@H](N)CCCCN)ccc4OC)ccc3OC)ccc2OC)cc1C(=O)N[C@@H](CCC(=O)O)C(=O)O` [Compound 276], the half-maximal effective concentration (EC50) in the assay with enoxaparin came to 625 nM; in the assay on tinzaparin, 363 nM; in the assay with fondaparinux it was 5180 nM; in the assay on Unfractionated heparin it was 2330 nM.
Consider `COc1ccc(NC(=O)[C@H](CCCNC(=N)N)NC(=O)c2cc(NC(=O)[C@H](CCCNC(=N)N)NC(=O)c3cc(NC(=O)[C@@H](N)CCCNC(=N)N)ccc3OC)ccc2OC)cc1C(=O)N[C@@H](CCCNC(=N)N)C(=O)Nc1ccc(OCC(=O)O)c(C(N)=O)c1` [Compound 286], for which the EC50 in the assay on enoxaparin amounted to 118 nM; in the assay on tinzaparin, 104 nM; with fondaparinux it was 526 nM; in the assay on Unfractionated heparin, 1900 nM.
In the same order, the values of `COc1ccc(NC(=O)[C@H](CCCCN)NC(=O)c2cc(NC(=O)[C@@H](N)CCCCN)ccc2OC)cc1C(=O)N[C@@H](CCCCN)C(=O)Nc1ccc(OC)c(C(=O)N[C@@H](CCCCN)C(=O)Nc2ccc(OC)c(C(=O)N[C@H](Cc3ccccc3)C(=O)O)c2)c1` [Compound 264] are 731 nM, 365 nM, greater than 10000 nM and 1380 nM.
In the same order, the values of `COc1cc(OC)c(C(=O)NCC2CCN(C(=O)c3cc(C(=O)N4CCC(CNC(=O)c5cc(C(=O)NCCN)c(OC)cc5OC)CC4)c(OC)cc3OC)CC2)cc1C(=O)NCCN` [Compound 395] are greater than 5000 nM, greater than 5000 nM, greater than 10000 nM and greater than 10000 nM.
The like results for `COc1ccc(NC(=O)[C@H](CCCCN)NC(=O)c2cc(NC(=O)[C@H](CCCCN)NC(=O)c3cc(NC(=O)[C@H](CCCCN)NC(=O)c4cc(NC(=O)[C@H](N)CCCCN)ccc4OC)ccc3OC)ccc2OC)cc1C(N)=O` [Compound 231] were, in that order, 192 nM, 99 nM, 3560 nM and 2310 nM.
With `COc1cc(OC)c(C(=O)N[C@H]2CC[C@H](NC(=O)c3cc(C(=O)O)ncn3)CC2)cc1C(=O)NCCN` [Compound 403], the concentration giving a half-maximal response (EC50) in the assay on enoxaparin was greater than 5000 nM; with tinzaparin, greater than 5000 nM; in the assay with fondaparinux, greater than 10000 nM; in the assay with Unfractionated heparin, greater than 10000 nM.
Regarding `COc1ccc(NC(=O)[C@H](CCCCN)NC(=O)c2cc(NC(=O)[C@H](CCCCN)NC(=O)c3cc(NC(=O)[C@H](CCCCN)NC(=O)c4ccc(NC(=O)[C@@H](N)CCCCN)cc4OC)ccc3OC)ccc2OC)cc1C(N)=O` [Compound 244], the concentration for a half-maximal effect (EC50) in the assay on enoxaparin was 229 nM; with tinzaparin it was 113 nM; in the assay with fondaparinux, 4710 nM; in the assay on Unfractionated heparin, 1460 nM.
`COc1ccc(NC(=O)[C@H](CCCNC(=N)N)NC(=O)c2cc(NC(=O)[C@@H](N)CCCNC(=N)N)ccc2OC)cc1C(=O)N[C@@H](CCCNC(=N)N)C(=O)Nc1ccc(OC)c(C(=O)N[C@@H](CCCNC(=N)N)C(=O)Nc2ccc(OC)c(C(=O)N3CCC[C@H]3C(N)=O)c2)c1` [Compound 234]: the concentration for a half-maximal effect (EC50) in the assay on enoxaparin was 1010 nM; in the assay with tinzaparin, 446 nM; with fondaparinux, greater than 10000 nM; with Unfractionated heparin, greater than 10000 nM.
